Test results from PubChem BioAssay (NCI).
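96-well plates; 48 h exposure; 5 concentrations. Endpoints by linear interpolation between flanking doses. Not reached: highest tested concentration assigned. GI50: concentration for 50% inhibition of growth. TGI denotes the concentration required for complete inhibition of growth.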

How the values were obtained:
Test in all cases: NCI-60 cell line screen, 48 h
BT-549 breast = tested on: BT-549 breast
CCRF-CEM leukemia = tested on: CCRF-CEM leukemia
OVCAR-3 ovarian = tested on: OVCAR-3 ovarian
OVCAR-4 ovarian = tested on: OVCAR-4 ovarian
PC-3 prostate = tested on: PC-3 prostate
RXF 393 renal = tested on: RXF 393 renal
SF-268 CNS = tested on: SF-268 CNS
SN12C renal = tested on: SN12C renal
SNB-19 CNS = tested on: SNB-19 CNS
T-47D breast = tested on: T-47D breast

| SMILES | GI50 (BT-549 breast) [nM] | TGI (BT-549 breast) [µM] | GI50 (CCRF-CEM leukemia) [nM] | TGI (CCRF-CEM leukemia) [µM] | GI50 (OVCAR-3 ovarian) [nM] | TGI (OVCAR-3 ovarian) [µM] | GI50 (OVCAR-4 ovarian) [µM] | TGI (OVCAR-4 ovarian) [µM] | GI50 (PC-3 prostate) [nM] | TGI (PC-3 prostate) [µM] | GI50 (RXF 393 renal) [nM] | TGI (RXF 393 renal) [µM] | GI50 (SF-268 CNS) [µM] | TGI (SF-268 CNS) [µM] | GI50 (SN12C renal) [µM] | TGI (SN12C renal) [µM] | GI50 (SNB-19 CNS) [µM] | TGI (SNB-19 CNS) [µM] | GI50 (T-47D breast) [nM] | TGI (T-47D breast) [µM] |
| --- | --- | --- | --- | --- | --- | --- | --- | --- | --- | --- | --- | --- | --- | --- | --- | --- | --- | --- | --- | --- |
| C#Cc1cccc(NC(=O)Nc2ccccc2NC(=O)CCl)c1 | 20000 | 65.5 | 20800 | > 82.5 | 13500 | 25.5 | 16 | 41 | 21500 | 58 | 12100 | 26.1 | 15.2 | 43.2 | 15.1 | 33.5 | 32 | > 82.5 | 31100 | > 82.5 |
| O=C(Nc1ccc(Cl)c(Cl)c1)Nc1ccc(Cl)c([N+](=O)[O-])c1 | 1870 | 5.33 | 1120 | > 25 | 889 | 3.66 | 0.768 | 8.01 | 921 | 3.59 | 2950 | 9.29 | 1.76 | 6.84 | 1.04 | 3.94 | 1.38 | 5.29 | 729 | 2.83 |
| COc1ccc(C(=O)c2cc3c(N)c(C(=O)Nc4cccc(Cl)c4)sc3nc2C)cc1 | 7690 | > 33.3 | 1200 | > 33.3 | 1010 | 3.12 | 9.48 | > 33.3 | 1480 | > 33.3 | 655 | 2.08 | 2.49 | > 33.3 | 1.96 | > 33.3 | 1.46 | > 33.3 | 2520 | > 33.3 |
| COc1ccc(C(=O)CC2(O)C(=O)Nc3c(Cl)ccc(Cl)c32)cc1 (configuration not stated) | 2430 | > 70.9 | 2030 | > 26.3 | 701 | 3.75 | 11.9 | > 100 | 2800 | > 100 | 3070 | > 100 | 5.95 | > 61.1 | 4.6 | > 95.1 | 4.68 | > 100 | 9900 | > 100 |
| O=c1ccc2nc(-c3ccccc3)nn(-c3ccccc3)c-2c1 | 2190 | 4.43 | 274 | 1.23 | 1010 | 2.34 | 1.5 | 2.85 | 2140 | 5.71 | 1670 | 3.06 | 3.48 | 13.5 | 1.77 | 3.53 | 16.9 | 41.1 | 485 | 1.26 |
| CCN1CCC(C(=O)Nc2n[nH]c3nnc(-c4cccc(F)c4F)cc23)CC1 | 12200 | > 25 | 6750 | > 25 | 2780 | > 14.2 | 7.04 | 22 | 10100 | > 25 | 403 | 5.78 | 9.08 | > 25 | 9.49 | > 25 | 12 | > 25 | 4420 | > 20.1 |
| CC(C)(O)Cn1c(=O)c(Oc2ccc(F)cc2F)cc2cnc(NC3CCOCC3)nc21 | > 25000 | > 25 | > 25000 | > 25 | > 25000 | > 25 | > 25 | > 25 | > 25000 | > 25 | > 25000 | > 25 | > 25 | > 25 | > 25 | > 25 | > 25 | > 25 | > 25000 | > 25 |
| O=C1CCCC1C(=O)Nc1ccc2ccccc2c1 (configuration not stated) |  | > 100 |  | > 100 |  | > 100 |  | > 100 |  | > 100 |  | > 100 |  | > 100 |  | > 100 |  | > 100 |  | > 100 |
| COc1ccc(C2SC(N)=Nc3c2c(C)nn3C(=O)c2ccncc2)cc1 (configuration not stated) |  | > 100 |  | > 100 |  | > 100 |  | > 100 |  | > 100 |  | > 100 |  | > 100 |  | > 100 |  | > 100 |  | > 100 |
| COc1cc([C@@H]2c3cc4c(cc3[C@H](OC3OC5COC(c6ccccc6)OC5C(O)C3O)[C@H]3COC(=O)[C@H]23)OCO4)cc(OC)c1OC (some centres not stated) | 333 | 1.99 | 570 |  | 282 | 0.711 | 0.663 | 11.8 | 432 | 22.5 | 264 | 0.879 | 0.428 | 2.72 | 0.368 | 20.6 | 0.405 | 16 | 1730 | 5.87 |
| CC/C=C/[C@@H]1C=C[C@@H]2CCC[C@H]2[C@@H]1CC[C@H](O)[C@H](C)N | 2490 | 8.03 | 4650 | 84.3 | 1590 | 2.93 | 1.83 | 4.88 | 2910 | 12.5 | 1940 | 4.17 | 1.71 | 3.42 | 4.25 | 18.6 |  |  | 1520 | 3.3 |
